The values below are quoted from earlier work in patent US20050227998A1, “Compositions and methods of decreasing nicotine withdrawal” (priority 2004, published 2005).

The test system of the data set is monkeys.

As for `CN1[C@@H]2C[C@@H](OC(=O)[C@H](CO)c3ccccc3)C[C@H]1[C@@H]1O[C@@H]12` [scopolamine, Scopolamine], the smoking patterns result is recorded as “decreased”.
